Here are results for 89 compounds from PubChem BioAssay AID651733 (The Scripps Research Institute Molecular Screening Center, 2012).

The source made the active and inactive calls. How the calls were made is not given here. Some results are limits rather than exact numbers.

For the assay, the target named is Perilipin-5 (Homo sapiens) + 1-acylglycerol-3-phosphate O-acyltransferase ABHD5 (Homo sapiens) (UniProt Q00G26+Q8WTS1). In words: ABHD5-PLIN5 interaction inhibitors, dose response, cell lysate, luminescence, proteins expressed in HEK293T (AID 651733).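 Further: split Gaussia princeps luciferase complementation between ABHD5 and MLDP fusion proteins.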
Chain of Perilipin-5 (Homo sapiens) + 1-acylglycerol-3-phosphate O-acyltransferase ABHD5 (Homo sapiens) (Q00G26 whole entry, looked up, the tested form may be a part): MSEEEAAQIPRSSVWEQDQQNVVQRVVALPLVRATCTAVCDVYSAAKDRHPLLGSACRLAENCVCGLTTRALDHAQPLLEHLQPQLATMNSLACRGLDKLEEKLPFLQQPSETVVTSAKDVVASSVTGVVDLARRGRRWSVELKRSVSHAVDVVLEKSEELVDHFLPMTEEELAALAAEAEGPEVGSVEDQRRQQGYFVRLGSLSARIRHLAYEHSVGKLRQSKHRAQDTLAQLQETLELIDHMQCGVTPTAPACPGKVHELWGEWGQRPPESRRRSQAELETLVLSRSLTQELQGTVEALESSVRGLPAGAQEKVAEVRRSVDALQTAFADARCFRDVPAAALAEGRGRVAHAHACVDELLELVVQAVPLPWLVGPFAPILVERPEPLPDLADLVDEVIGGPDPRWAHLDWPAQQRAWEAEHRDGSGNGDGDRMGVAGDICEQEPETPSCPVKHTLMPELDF
Chain of Perilipin-5 (Homo sapiens) + 1-acylglycerol-3-phosphate O-acyltransferase ABHD5 (Homo sapiens) (Q8WTS1 whole entry, looked up, the tested form may be a part): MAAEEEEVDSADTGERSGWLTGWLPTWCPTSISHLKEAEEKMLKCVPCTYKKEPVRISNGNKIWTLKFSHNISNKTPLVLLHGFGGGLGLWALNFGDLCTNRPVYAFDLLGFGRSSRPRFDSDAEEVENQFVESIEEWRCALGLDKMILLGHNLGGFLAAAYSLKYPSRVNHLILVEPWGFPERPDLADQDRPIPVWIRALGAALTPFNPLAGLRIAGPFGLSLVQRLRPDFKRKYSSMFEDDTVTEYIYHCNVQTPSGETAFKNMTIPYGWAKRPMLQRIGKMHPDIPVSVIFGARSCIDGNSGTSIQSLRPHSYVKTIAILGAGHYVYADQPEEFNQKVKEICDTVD
One may read the IC50 as the midpoint of a concentration-inhibition curve. As for `O=C(NC1CCCCC1)C(c1ccnc2ccccc12)n1c(=O)c(-c2ccco2)nc2ccccc21` (centres undefined), the IC50 was 4.42 µM.

Consider `O=C(Nc1ccc2c(c1)OCCO2)C(c1ccccc1F)n1c(=O)c(-c2ccco2)nc2ccccc21` (centres undefined), for which the IC50 entry was “inactive”. The value for `COc1cc(OC)cc(C(=O)NC(=S)N(Cc2ccccc2)C(C)C)c1` was “inactive”.

Consider `Cc1ccc(O)c(C(=O)C=Cc2ccccc2)c1`, for which the IC50 is 2.61 µM. The value for `CC(=O)Oc1c(Cl)c(N2CCOCC2)c(OC(C)=O)c2ccccc12` was 8.04 µM; that for `CCOC(=O)c1c(C)oc2c1c(CN1CCN(CCO)CC1)c(O)c1ccccc12` was 3.58 µM; that for `COc1ccc(NC(=O)C(c2ccnc3ccccc23)n2c(=O)c(-c3ccco3)nc3ccccc32)cc1` (centres undefined) was 7.88 µM. The entry for `N#Cc1ncc(Cc2ccccc2)nc1C#N` is “inactive”. With `CCCCOC(=O)Nc1cc(C(=O)OC)ccc1C(=O)OC`, the IC50 was 4.5 µM. The figure for `O=CC1=C(c2ccccc2)Oc2ccccc2O1` is 3.02 µM; for `O=C(Cn1c(=O)n(Cc2ccco2)c(=O)c2c3c(sc21)CCCC3)Nc1ccccc1` it is “inactive”. The value for `O=C1/C(=C/c2cccnc2)CC/C1=C\c1cccnc1` was 4.26 µM. The value for `O=C1CC(c2ccc(Cl)cc2)Oc2ccc(Cl)cc21` (centres undefined) was 3.18 µM; that for `Cc1cccc(C)c1NC(=O)C(c1ccccc1F)n1c(=O)c(-c2ccco2)nc2ccccc21` (centres undefined) was 5.65 µM. On to `COc1ccc(/C=C/C(=O)c2cc(F)ccc2OC(=O)c2ccc(OC)c(OC)c2)cc1OC`, for which the IC50 is 3.22 µM.

As to `Oc1ccc2sc(-c3ccccc3O)c(-c3ccc(OCCN4CCCCC4)cc3)c2c1`, the IC50 entry is “inactive”. Take `CN(C)CCCN(C(=O)CCc1ccccc1)c1nc2ccc(Br)cc2s1`: the IC50 entry was “inactive”. The figure for `CC(C)c1ccc(N2C=Nc3ccc(C(C)C)cc3C2)cc1` is 7.82 µM; for `CC1Sc2ccc(S(=O)(=O)N3CCC(C(=O)NCc4ccc(Cl)cc4)CC3)cc2NC1=O` (centres undefined) it is “inactive”; for `CN(C)c1ccc(Cc2cc3c(O)ccc(O)c3cc(Cc3ccc(N(C)C)cc3)c2=O)cc1` it is 4.13 µM. The figure for `Cc1cccc(C)c1NC(=O)C(c1ccccc1)n1c(=O)c(-c2ccco2)nc2ccccc21` (centres undefined) is 7.69 µM. The figure for `O=C(NCc1ccccc1)C(c1ccc(-c2ccccc2)cc1)n1c(=O)c(-c2ccco2)nc2ccccc21` (centres undefined) is 5.97 µM; for `Cc1cc(C)c2nc(NNC(=O)c3ccc(S(=O)(=O)N4CCCC(C)C4)cc3)sc2c1` (centres undefined) it is 1.88 µM. For `COc1ccc(C(C(=O)Nc2c(C)cccc2C)n2c(=O)c(-c3ccco3)nc3ccccc32)cc1` (centres undefined), the IC50 was 4.29 µM. On to `Cc1ccc(CS(=O)(=O)c2ncc(Cl)c(C(=O)Nc3nnc(C(C)C)s3)n2)cc1`, for which the IC50 was 2.88 µM. The figure for `C#CCN(C[C@@H]1[C@@H](OC(=O)NCc2ccc(OC)c(OC)c2)[C@@H](OC(=O)NCc2ccc(OC)c(OC)c2)Cn2c(=O)ccc(=O)n21)S(=O)(=O)c1ccc(C)cc1` is 5.74 µM; for `COc1cc(/C=C/C(=O)c2ccc(Cl)s2)cc(OC)c1O` it is 6.42 µM.

With `CCC(c1nc2ccccc2[nH]1)n1c(=O)c(-c2ccco2)nc2ccccc21` (centres undefined), the IC50 is 5.45 µM. The value for `Cc1cc(C)c(NC(=O)CN2CCN3CCCC3C2)c(C)c1` (centres undefined) was 4.81 µM; that for `CC1CN(Cc2c(O)ccc3c2oc(=O)c2ccccc23)CC(C)O1` (centres undefined) was 4.77 µM; that for `CC(=O)OCC1=C(C(=O)O)N2C(=O)C(NC(=O)CCn3nc(C(F)(F)F)c(Br)c3C3CC3)C2SC1` (centres undefined) was “inactive”. For `COc1ccccc1/C=C/C(=O)c1ccccc1`, the half-inhibitory concentration (IC50) was 9.15 µM. The value for `CC1CCN(S(=O)(=O)c2ccc(NC(=O)Cc3ccccc3)cc2)CC1` was 5.73 µM. The entry for `Cc1ccc2sc(N(CCCN(C)C)C(=O)CN3C(=O)c4ccccc4C3=O)nc2c1C` is “inactive”. On to `Cc1cccc(C)c1OCc1cn(CC(=O)c2ccc(O)cc2)nn1`, for which the IC50 is 5.07 µM. With `CCOC(=O)c1c(NC(=O)/C=C/C(=O)O)sc(C)c1-c1ccc(C(C)(C)C)cc1`, the IC50 is 5.99 µM. For the compound `O=C(Nc1ccc(Cl)cc1)/C(=C/c1cccc(O)c1)c1nc2ccccc2s1`, the IC50 is 1.71 µM. The value for `COc1cc2c(cc1OC)C(C)N(CCc1ccc(Cl)cc1)CC2` (centres undefined) was 5.37 µM. The value for `CN(C)CCN(Cc1ccco1)c1ccccn1` was 4.4 µM; that for `CSc1nnc(NC(=O)c2nc(S(=O)(=O)Cc3cccc(C)c3)ncc2Cl)s1` was 3.59 µM; that for `CC1=CC(C)(C)Nc2ccc(OC(=O)c3cccnc3)cc21` was 3.25 µM.

As for `CCN(CC)CCOCCOC(=O)C1(c2ccccc2)CCCC1`, the IC50 is 2.17 µM. On to `C=CC(=O)N1c2ccccc2Sc2ccc(NC(=O)OCC)cc21`, for which the IC50 is 4.84 µM. The figure for `CCCCCNC(=O)C(c1ccc(OC)cc1)n1c(=O)c(-c2ccco2)nc2ccccc21` (centres undefined) is 3.4 µM; for `CC(C)(C)NC(=O)C(c1ccccc1F)n1c(=O)c(-c2ccco2)nc2ccccc21` (centres undefined) it is 4.2 µM; for `O=C(/C=C/Sc1ccccc1)c1ccc(Cl)cc1` it is 4 µM. Consider `C#CCOCCOCCOCCNc1nc(N2CCN(C(=O)CCCCCCCCCCNC(=O)[C@@H](CCSC)n3cc(CCO)nn3)CC2)nc(N2CCN(C(=O)CCCCCCCCCCNC(=O)[C@@H]([C@H](C)O)n3cc(C)nn3)CC2)n1`, for which the IC50 result was “inactive”.

As to `N#Cc1ccc(C(C(=O)Nc2ccc3c(c2)OCCO3)n2c(=O)c(-c3ccco3)nc3ccccc32)cc1` (centres undefined), the IC50 result is “inactive”.

With `COc1cccc2sc(N(CCCN(C)C)C(=O)COc3ccc(Cl)cc3)nc12`, the IC50 result was “inactive”. The figure for `CCCCNC(=O)Nc1ccc2c(c1)N(C)C(=O)c1ccccc1S2` is 3.6 µM. As for `Cc1nc2c(o1)CCc1ccccc1C2N1CCN(C)CC1` (centres undefined), the IC50 was 4.44 µM. Regarding `Cc1ccc(S(=O)(=O)N2C[C@@]3(O)Cn4c(=O)ccc(=O)n4C[C@@]3(OC(=O)NCC3CCCCC3)C2)cc1`, the IC50 result is “inactive”. The value for `COCCN(CCOC)c1nc(N)c2c(N)nc3c(c2c1C#N)CC(=O)N3Cc1ccc(Cl)cc1` was “inactive”; that for `c1ccc(CCC2=NCCn3cccc32)cc1` was 8.18 µM; that for `CS(=O)(=O)c1ccc(C(=O)NCCN2C(=O)S/C(=C\c3cccnc3)C2=O)cc1[N+](=O)[O-]` was 4.62 µM. On to `Cc1ccc(C(=O)/C=C/c2cc(Br)cc(Br)c2O)o1`, for which the IC50 entry was “inactive”.

In the case of `COc1ccc(NC(=O)C(c2ccc(OC)cc2)n2c(=O)c(-c3ccco3)nc3ccccc32)cc1` (centres undefined), the IC50 entry was “inactive”.

As for `Cc1ccc(C(=O)c2coc3c2C(=O)C(=O)c2ccccc2-3)cc1`, the IC50 is 6.15 µM. The figure for `O=C(NC1CCCCC1)C(c1ccccc1)n1c(=O)c(-c2ccco2)nc2ccccc21` (centres undefined) is 1.94 µM; for `COc1ccc(NC(=O)c2cc3ccccc3cc2O)cc1` it is “inactive”. The figure for `Cc1cc(C)c(C(CC(=O)c2cccs2)C(C#N)C#N)c(C)c1` (centres undefined) is 8.57 µM; for `N#Cc1ccc(C(C(=O)NC2CCCCC2)n2c(=O)c(-c3ccco3)nc3ccccc32)cc1` (centres undefined) it is 4.03 µM. As for `CCCCC(=O)NC(c1cccc([N+](=O)[O-])c1)c1ccc2cccnc2c1O` (centres undefined), the IC50 result is “inactive”. With `Cc1ccc(C)c(/C=C/C(=O)c2ccccc(=O)c2O)c1`, the IC50 is 5.69 µM. The figure for `O=C1C(=O)c2c(C(=O)c3ccccc3)coc2-c2ccccc21` is 5.97 µM; for `CCOC(=O)C1C(OC(=O)c2ccccc2)CC2CCC1N2C` (centres undefined) it is 5.69 µM; for `CCN(CC)CCC(C)OC(c1ccccc1)c1ccccc1` (centres undefined) it is 3.29 µM. The figure for `CCSc1ccc2c(c1)N(CCCN1CCN(C)CC1)c1ccccc1S2` is 5.95 µM; for `CCOc1cc(N)c(Cl)cc1C(=O)NCC1CN(Cc2ccc(F)cc2)CCO1` (centres undefined) it is 1.93 µM. For `CN(C)CCOc1ccc(/C(=C(/CCCl)c2ccccc2)c2ccccc2)cc1`, the IC50 is 1.2 µM. Take `CCOC1=CC2=C(C(=O)C(Cl)=CC2=O)[C@@H]2CN(S(=O)(=O)c3ccc(C)cc3)[C@@H](c3ccccc3)[C@H]12`: the IC50 is 2.25 µM. `CC1=CC(C)(C)Nc2ccc(OC(=O)C(C)N3C(=O)c4ccccc4C3=O)cc21` (centres undefined): the IC50 was 3.65 µM. The value for `COC(=O)c1cc(=O)n(Cc2ccco2)c(=Nc2ccc(F)cc2)s1` was 3.58 µM; that for `Cc1cccc(NC(=O)CSc2nnc(-c3ccco3)c(-c3ccco3)n2)c1` was 4.25 µM.

Turning to `C=C1C(=O)O[C@H]2C[C@H]1[C@@H](OC(C)=O)C/C(C)=C/CC/C(C)=C\CC[C@]2(C)O`, the IC50 was 1.6 µM. On to `CC(=O)Nc1ccc(S(=O)(=O)N2c3ccc(F)cc3CCC2C)cc1` (centres undefined), for which the IC50 entry was “inactive”.

On to `CN(C)CCOC1(Cc2ccc(F)cc2)CCC(C(C)(C)C)CC1` (centres undefined), for which the IC50 is 6.65 µM. The value for `COc1ccc(NC(=O)C(c2ccc(C#N)cc2)n2c(=O)c(-c3ccco3)nc3ccccc32)cc1` (centres undefined) was “inactive”; that for `COc1ccc(C(C(=O)NC(C)(C)C)n2c(=O)c(-c3ccco3)nc3ccccc32)cc1` (centres undefined) was 3.52 µM; that for `CC(=O)Oc1c(Br)cc(N(C(C)=O)S(=O)(=O)c2ccccc2)c2ccccc12` was “inactive”. The value for `Cc1cccc(C)c1NC(=O)C(c1cccc2ccccc12)n1c(=O)c(-c2ccco2)nc2ccccc21` (centres undefined) was 4.15 µM; that for `CC(C)(C)NC(=O)C(c1cc2ccccc2o1)n1c(=O)c(-c2ccco2)nc2ccccc21` (centres undefined) was 3.94 µM; that for `CC(=O)Cc1cc(O)c2ccccc2c1OC(=O)c1ccc(Br)cc1` was 4.1 µM. The value for `C#CCN(C[C@@H]1[C@@H](OC(=O)NCCCCCC)[C@@H](OC(=O)NCCCCCC)Cn2c(=O)ccc(=O)n21)S(=O)(=O)c1ccc(C)cc1` was 6.47 µM; that for `CCCCCNC(=O)C(c1ccc(C(F)(F)F)cc1)n1c(=O)c(-c2ccco2)nc2ccccc21` (centres undefined) was 3.44 µM; that for `O=C(COc1ccccc1Cl)Nc1ccc(N2CCCC2)cc1` was > 39.9 µM (inactive).

`O=C(NC1CCCCC1)C(c1ccc(-c2ccccc2)cc1)n1c(=O)c(-c2ccco2)nc2ccccc21` (centres undefined): the 50% inhibitory concentration (IC50) is 4.1 µM. The figure for `CCc1nnc(NC(=O)c2nc(S(=O)(=O)Cc3ccccc3)ncc2Cl)s1` is 5.18 µM. The value for `Cc1oc2c(c1C(=O)c1ccc(Cl)cc1)C(=O)C(=O)c1ccccc1-2` was 4.38 µM.
